The source of these data is patent US12679843B2, “Pyrrolopyrimidine amines as complement inhibitors” (BioCryst Pharmaceuticals, Inc., priority 2020, dated 2026).

One may read the IC50 as the concentration needed to halve the response being measured.

For the assay, the target named is Factor D (Homo sapiens, UniProt P00746). The experiment in a line: Factor D esterolytic assay (Z-Lys-SBzl thioester substrate, DTNB, 405 nm). Format: biochemical. The settings on record: substrate Z-Lys-SBzl 1.29 mM, 100 mM HEPES, 500 mM NaCl, pH 7.5, 10% DMSO, tested a minimum of three times. The essentials: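 Human Factor D hydrolysis of Z-Lys-SBzl (1.29 mM) monitored at 405 nm via DTNB thiol detection for 600 s, 690 nm background subtracted. Buffer 100 mM HEPES, 500 mM NaCl, pH 7.5, 10% DMSO; substrate added immediately or after room-temperature preincubation. IC50 from percent inhibition of rate, at least three tests.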
Sequence of Factor D (P00746 26-253): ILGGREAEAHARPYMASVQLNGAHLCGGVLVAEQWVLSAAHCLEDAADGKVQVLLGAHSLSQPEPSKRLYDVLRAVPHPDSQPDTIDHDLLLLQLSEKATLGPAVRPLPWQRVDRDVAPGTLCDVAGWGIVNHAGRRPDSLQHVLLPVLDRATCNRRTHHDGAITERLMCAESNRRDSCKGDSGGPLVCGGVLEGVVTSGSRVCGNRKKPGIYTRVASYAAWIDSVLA
Regarding `Cc1cc(C2CC2)cc2c3c(N)ncnc3n(CC(=O)N3[C@@H]4C[C@@H]4C[C@H]3C(=O)Nc3cccc(Br)n3)c12` [Compound 360c, (1R,3S,5R)-2-(2-(4-amino-6-cyclopropyl-8-methyl-9H-pyrimido[4,5-b]indol-9-yl)acetyl)-N-(6-bromopyridin-2-yl)-2-azabicyclo[3.1.0]hexane-3-carboxamide], the IC50 was below 100 nM. With `COCc1ccc2c(c1)c1c(N)ncnc1n2CC(=O)N1[C@@H]2C[C@@H]2C[C@H]1C(=O)Nc1cccc(Br)n1` [Compound 339g, (1R,3S,5R)-2-(2-(4-amino-6-(methoxymethyl)-9H-pyrimido[4,5-b]indol-9-yl)acetyl)-N-(6-bromopyridin-2-yl)-2-azabicyclo[3.1.0]hexane-3-carboxamide] the figure was below 100 nM; with `Cc1cc2c(cc1Br)c1c(N)ncnc1n2CC(=O)N1[C@H](C(=O)Nc2cccc(Br)n2)C[C@@]2(C)C[C@@H]12` [Compound 380a, (1R,3S,5R)-2-(2-(4-amino-6-bromo-7-methyl-9H-pyrimido[4,5-b]indol-9-yl)acetyl)-N-(6-bromopyridin-2-yl)-5-methyl-2-azabicyclo[3.1.0]hexane-3-carboxamide], below 100 nM; with `Cc1cc(C(F)(F)F)cc2c3c(N)ncnc3n(CC(=O)N3[C@@H]4C[C@@H]4C[C@H]3C(=O)Nc3cccc(OC(F)F)n3)c12` [Compound 345c, (1R,3S,5R)-2-(2-(4-amino-8-methyl-6-(trifluoromethyl)-9H-pyrimido[4,5-b]indol-9-yl)acetyl)-N-(6-(difluoromethoxy)pyridin-2-yl)-2-azabicyclo[3.1.0]hexane-3-carboxamide], below 100 nM. Next, `CNC(=O)c1ccc2c(c1)c1c(N)ncnc1n2CC(=O)N1[C@H](C(=O)Nc2cccc(Br)n2)C[C@@]2(C)C[C@@H]12` [Compound 196d, 4-amino-9-(2-((1R,3S,5R)-3-((6-bromopyridin-2-yl)carbamoyl)-5-methyl-2-azabicyclo[3.1.0]hexan-2-yl)-2-oxoethyl)-N-methyl-9H-pyrimido[4,5-b]indole-6-carboxamide]: below 100 nM. With `Cc1nc2c(N)ncnc2n1CC(=O)N1C[C@H](F)C[C@H]1C(=O)NCc1cccc(Cl)c1F` [Compound 152d, (2S,4R)-1-(2-(6-amino-8-methyl-9H-purin-9-yl)acetyl)-N-(3-chloro-2-fluorobenzyl)-4-fluoropyrrolidine-2-carboxamide] the figure was 100 to 1000 nM; with `Nc1ccc2c(c1)c1c(N)ncnc1n2CC(=O)N1[C@@H]2C[C@@H]2C[C@H]1C(=O)Nc1cccc(Br)n1` [Compound 61a, (1R,3S,5R)—N-(6-bromopyridin-2-yl)-2-(2-(4,6-diamino-9H-pyrimido[4,5-b]indol-9-yl)acetyl)-2-azabicyclo[3.1.0]hexane-3-carboxamide], below 100 nM.

Take `CC(=O)c1ccc2c(c1)c1c(N)ncnc1n2CC(=O)N1[C@@H]2C[C@@H]2C[C@H]1C(=O)Nc1cccc(Br)n1` [Compound 58c, (1R,3S,5R)-2-(2-(6-acetyl-4-amino-9H-pyrimido[4,5-b]indol-9-yl)acetyl)-N-(6-bromopyridin-2-yl)-2-azabicyclo[3.1.0]hexane-3-carboxamide]: the IC50 is below 100 nM. With `COc1ccc2c3c(N)ncnc3n(CC(=O)N3[C@@H]4C[C@@H]4C[C@H]3C(=O)Nc3cccc(Br)n3)c2c1` [Compound 36e, (1R,3S,5R)-2-(2-(4-amino-7-methoxy-9H-pyrimido[4,5-b]indol-9-yl)acetyl)-N-(6-bromopyridin-2-yl)-2-azabicyclo[3.1.0]hexane-3-carboxamide] the figure was below 100 nM; with `C[C@@]12C[C@@H](C(=O)Nc3cccc(Br)n3)N(C(=O)Cn3c4ncnc(N)c4c4cccc(F)c43)[C@@H]1C2` [Compound 198a, (1R,3S,5R)-2-(2-(4-amino-8-fluoro-9H-pyrimido[4,5-b]indol-9-yl)acetyl)-N-(6-bromopyridin-2-yl)-5-methyl-2-azabicyclo[3.1.0]hexane-3-carboxamide], below 100 nM. With `Nc1c(C(=O)O)cnc2c1ccn2CC(=O)N1C[C@H](F)C[C@H]1C(=O)NCc1cccc(Cl)c1F` [Compound 151a, 4-amino-1-(2-((2S,4R)-2-((3-chloro-2-fluorobenzyl)carbamoyl)-4-fluoropyrrolidin-1-yl)-2-oxoethyl)-1H-pyrrolo[2,3-b]pyridine-5-carboxylic acid], the IC50 was in the range of 100 to 1000 nM. Next, `C=Cc1ccc2c(c1)c1c(N)ncnc1n2CC(=O)N1[C@@H]2C[C@@H]2C[C@H]1C(=O)Nc1cccc(Br)n1` [Compound 59c, (1R,3S,5R)-2-(2-(4-amino-6-vinyl-9H-pyrimido[4,5-b]indol-9-yl)acetyl)-N-(6-bromopyridin-2-yl)-2-azabicyclo[3.1.0]hexane-3-carboxamide]: below 100 nM. With `C[C@@]12C[C@@H](C(=O)Nc3cccc(Br)n3)N(C(=O)Cn3c4ccc(CCC(=O)O)cc4c4c(N)ncnc43)[C@@H]1C2` [Compound 214b, 3-(4-amino-9-(2-((1R,3S,5R)-3-((6-bromopyridin-2-yl)carbamoyl)-5-methyl-2-azabicyclo[3.1.0]hexan-2-yl)-2-oxoethyl)-9H-pyrimido[4,5-b]indol-6-yl)propanoic acid] the figure was below 100 nM; with `COc1cc([N+](=O)[O-])cc2c3c(N)ncnc3n(CC(=O)N3[C@@H]4C[C@@H]4C[C@H]3C(=O)Nc3cccc(Br)n3)c12` [Compound 242g, (1R,3S,5R)-2-(2-(4-amino-8-methoxy-6-nitro-9H-pyrimido[4,5-b]indol-9-yl)acetyl)-N-(6-bromopyridin-2-yl)-2-azabicyclo[3.1.0]hexane-3-carboxamide], below 100 nM. Consider `Nc1ncnc2c1cnn2CC(=O)N1CCC[C@H]1C(=O)NCc1cccc(Cl)c1F` [Compound 78a, (S)-1-(2-(4-amino-1H-pyrazolo[3,4-d]pyrimidin-1-yl)acetyl)-N-(3-chloro-2-fluorobenzyl)pyrrolidine-2-carboxamide], for which the IC50 was in the range of 100 to 1000 nM. As for `N#Cc1ccc2c(c1)c1c(N)ncnc1n2CC(=O)N1[C@@H]2C[C@@H]2C[C@H]1C(=O)Nc1cccc(Br)n1` [Compound 49c, (1R,3S,5R)-2-(2-(4-amino-6-cyano-9H-pyrimido[4,5-b]indol-9-yl)acetyl)-N-(6-bromopyridin-2-yl)-2-azabicyclo[3.1.0]hexane-3-carboxamide], the IC50 is below 100 nM. For the compound `Cc1nc(N)c2ccn(CC(=O)N3C[C@H](F)C[C@H]3C(=O)NCc3cccc(Cl)c3F)c2n1` [Compound 132d, (2S,4R)-1-(2-(4-amino-2-methyl-7H-pyrrolo[2,3-d]pyrimidin-7-yl)acetyl)-N-(3-chloro-2-fluorobenzyl)-4-fluoropyrrolidine-2-carboxamide], the IC50 was above 1000 nM. With `C[C@@]12C[C@@H](C(=O)Nc3cccc(Br)n3)N(C(=O)Cn3c4ccc(C(N)=O)cc4c4c(N)ncnc43)[C@@H]1C2` [Compound 203a, 4-amino-9-(2-((1R,3S,5R)-3-((6-bromopyridin-2-yl)carbamoyl)-5-methyl-2-azabicyclo[3.1.0]hexan-2-yl)-2-oxoethyl)-9H-pyrimido[4,5-b]indole-6-carboxamide] the figure was below 100 nM. With `COc1cc2c(cc1F)c1c(N)ncnc1n2CC(=O)N1[C@H](C(=O)Nc2cccc(Br)n2)C[C@@]2(C)C[C@@H]12` [Compound 388a, (1R,3S,5R)-2-(2-(4-amino-6-fluoro-7-methoxy-9H-pyrimido[4,5-b]indol-9-yl)acetyl)-N-(6-bromopyridin-2-yl)-5-methyl-2-azabicyclo[3.1.0]hexane-3-carboxamide] the figure was below 100 nM; with `Nc1ncnc2c1c1cc(F)c(F)cc1n2CC(=O)N1[C@@H]2C[C@@H]2C[C@H]1C(=O)Nc1cccc(Br)n1` [Compound 386g, (1R,3S,5R)-2-(2-(4-amino-6,7-difluoro-9H-pyrimido[4,5-b]indol-9-yl)acetyl)-N-(6-bromopyridin-2-yl)-2-azabicyclo[3.1.0]hexane-3-carboxamide], below 100 nM. `COC(=O)c1cnc2c(ccn2CC(=O)N2C[C@H](F)C[C@H]2C(=O)NCc2cccc(Cl)c2F)c1N` [Compound 147a, methyl 4-amino-1-(2-((2S,4R)-2-((3-chloro-2-fluorobenzyl)carbamoyl)-4-fluoropyrrolidin-1-yl)-2-oxoethyl)-1H-pyrrolo[2,3-b]pyridine-5-carboxylate]: the IC50 was above 1000 nM. `COc1cc(F)cc2c3c(N)ncnc3n(CC(=O)N3[C@@H]4C[C@@H]4C[C@H]3C(=O)Nc3cccc(Br)n3)c12` [Compound 280g, (1R,3S,5R)-2-(2-(4-amino-6-fluoro-8-methoxy-9H-pyrimido[4,5-b]indol-9-yl)acetyl)-N-(6-bromopyridin-2-yl)-2-azabicyclo[3.1.0]hexane-3-carboxamide]: the IC50 was below 100 nM. Turning to `Nc1ncnc2c1ncn2CC(=O)N1[C@@H]2C[C@@H]2C[C@H]1C(=O)NCC1CC1(Cl)Cl` (stereo partly drawn) [Compound 103b, (1R,3S,5R)-2-(2-(6-amino-9H-purin-9-yl)acetyl)-N-((2,2-dichlorocyclopropyl)methyl)-2-azabicyclo[3.1.0]hexane-3-carboxamide], the IC50 was 100 to 1000 nM. Take `Cc1ccc(Br)nc1NC(=O)[C@@H]1C[C@H]2C[C@H]2N1C(=O)Cn1c2ncnc(N)c2c2cc(C(F)(F)F)cc(C)c21` [Compound 303a, (1R,3S,5R)-2-(2-(4-amino-8-methyl-6-(trifluoromethyl)-9H-pyrimido[4,5-b]indol-9-yl)acetyl)-N-(6-bromo-3-methylpyridin-2-yl)-2-azabicyclo[3.1.0]hexane-3-carboxamide]: the IC50 is below 100 nM. Regarding `Cc1cc(F)c(Br)nc1NC(=O)[C@@H]1C[C@H]2C[C@H]2N1C(=O)Cn1c2ncnc(N)c2c2cc(C(F)(F)F)cc(C)c21` [Compound 322c, (1R,3S,5R)-2-(2-(4-amino-8-methyl-6-(trifluoromethyl)-9H-pyrimido[4,5-b]indol-9-yl)acetyl)-N-(6-bromo-5-fluoro-3-methylpyridin-2-yl)-2-azabicyclo[3.1.0]hexane-3-carboxamide], the IC50 is below 100 nM.
